Laboratory results reported in PubChem BioAssay AID330 (DTP/NCI, 2004).
“And” between values parts separate entries of the source, which are not always exact repeats. Equal entries are not always repeated. Toxic doses and inconclusive results are not listed. How the source made its calls: active means survival T/C of 150% or more; inactive means T/C below 125% in these data.

Tested on: P388 leukemia ip, CD2F1 mice, survival T/C
Assay: NCI In Vivo Anticancer Drug Screen. Data for tumor model P388 Leukemia (intraperitoneal) in CD2F1 (CDF1) mice
Conditions: endpoint: median survival time, higher = longer survival
In short: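 Mice carrying the transplanted tumor received test compound or vehicle. Survival was recorded in each group, and the value is the treated-group measurement divided by that of the vehicle-treated control group.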

[1] = dose: 25.0 mg/kg/injection, schedule: Q01DX009 (ip), vehicle: other
[2] = dose: 50.0 mg/kg/injection, schedule: Q01DX009 (ip), vehicle: other
[3] = dose: 100.0 mg/kg/injection, schedule: Q01DX009 (ip), vehicle: other
[4] = dose: 25.0 mg/kg/injection, schedule: Q01DX009 (ip), vehicle: saline
[5] = dose: 50.0 mg/kg/injection, schedule: Q01DX009 (ip), vehicle: saline
[6] = dose: 50.0 mg/kg/injection, schedule: Q01DX009 (ip), vehicle: saline with Tween-80
[7] = dose: 100.0 mg/kg/injection, schedule: Q01DX009 (ip), vehicle: saline with Tween-80
[8] = dose: 200.0 mg/kg/injection, schedule: Q01DX009 (ip), vehicle: saline with Tween-80
[9] = dose: 50.0 mg/kg/injection, schedule: Q01DX009 (ip), vehicle: Klucel (hydroxypropylcellulose) (HPC)
[10] = dose: 200.0 mg/kg/injection, schedule: Q01DX009 (ip), vehicle: Klucel (hydroxypropylcellulose) (HPC)
[11] = dose: 50.0 mg/kg/injection, schedule: Q01DX005 (ip), vehicle: saline
[12] = dose: 25.0 mg/kg/injection, schedule: Q01DX009 (ip), vehicle: saline with Tween-80
[13] = dose: 50.0 mg/kg/injection, schedule: Q01DX005 (ip), vehicle: Klucel (hydroxypropylcellulose) (HPC)
[14] = dose: 100.0 mg/kg/injection, schedule: Q01DX009 (ip), vehicle: saline
[15] = dose: 200.0 mg/kg/injection, schedule: Q01DX009 (ip), vehicle: saline

Measured: T/C

COC(=O)C1C2CCC1C2 (stereo not drawn)
inactive: [1] 97 % of control | [2] 110 % of control | [3] 105 % of control | dose: 200.0 mg/kg/injection, schedule: Q01DX009 (ip), vehicle: other 107 % of control | dose: 400.0 mg/kg/injection, schedule: Q01DX009 (ip), vehicle: other 110 % of control

CCCCCCCCCCCC(=O)NC(=S)Nc1ccccc1C(=O)OC
inactive: [4] 105 % of control | [5] 99 % of control

COc1ccccc1CN1CC(C)N(N=Cc2c3c(O)c4c(O)c(C)c5c(c4c2O)C(=O)C(C)(O/C=C/C(OC)C(C)C(OC(C)=O)C(C)C(O)C(C)C(O)C(C)/C=C/C=C(\C)C(=O)N3)O5)C(C)C1 (stereo not drawn)
inactive: [6] 102 % of control | [7] 107 % of control | [8] 117 % of control

CCOC(=O)c1cn2ccccc2c(C(=O)c2cccnc2)c1=N
inactive: dose: 100.0 mg/kg/injection, schedule: Q04DX003 (ip), vehicle: saline 91 % of control | dose: 200.0 mg/kg/injection, schedule: Q04DX003 (ip), vehicle: saline 96 % of control | dose: 400.0 mg/kg/injection, schedule: Q04DX003 (ip), vehicle: saline 96 % of control

CCCc1c(C)nc2scc(-c3ccccc3)n2c1=O
inactive: [6] 105 % of control | [7] 99 % of control | [8] 99 % of control

CC(=O)CC(c1ccccc1)C(Sc1ccccc1)(Sc1ccccc1)Sc1ccccc1 (stereo not drawn)
inactive: [9] 101 % of control | [10] 93 % of control

c1ccc2c(c1)Sc1ccccc1N2Cc1cnc[nH]1
inactive: [9] 101 % of control | dose: 50.0 mg/kg/injection, schedule: Q01DX009 (ip), vehicle: alcohol 114 % of control | dose: 100.0 mg/kg/injection, schedule: Q01DX009 (ip), vehicle: Klucel (hydroxypropylcellulose) (HPC) 109 % of control | dose: 100.0 mg/kg/injection, schedule: Q01DX009 (ip), vehicle: alcohol 114 % of control | [10] 118 % of control

CC(C)(NC(=O)c1cc(Cl)c2ccccc2c1O)C(=O)O
inactive: dose: 50.0 mg/kg/injection, schedule: Q01DX009 (ip), vehicle: saline + alcohol 97 % of control | dose: 100.0 mg/kg/injection, schedule: Q01DX009 (ip), vehicle: saline + alcohol 94 % of control | dose: 200.0 mg/kg/injection, schedule: Q01DX009 (ip), vehicle: saline + alcohol 103 % of control

CCCCCCCCCCCC[N+]1([O-])CCOCC1
inactive: dose: 0.75 mg/kg/injection, schedule: Q01DX009 (ip), vehicle: saline with Tween-80 93 % of control | dose: 1.5 mg/kg/injection, schedule: Q01DX009 (ip), vehicle: saline with Tween-80 91 % of control | dose: 3.0 mg/kg/injection, schedule: Q01DX009 (ip), vehicle: saline with Tween-80 93 % of control | dose: 12.5 mg/kg/injection, schedule: Q01DX009 (ip), vehicle: saline 91 % of control | [4] 101 % of control and 94 % of control | [5] 99 % of control and 97 % of control

C/C([O-])=N/c1n[n+](-c2ccc(Cl)cc2)no1
inactive: dose: 3.12 mg/kg/injection, schedule: Q01DX009 (ip), vehicle: other 98 % of control | dose: 6.25 mg/kg/injection, schedule: Q01DX009 (ip), vehicle: other 100 % of control | dose: 12.5 mg/kg/injection, schedule: Q01DX009 (ip), vehicle: other 103 % of control | [1] 101 % of control | [2] 112 % of control | [3] 112 % of control

C=CCOc1cc2c(cc1OCC=C)C(=O)c1cc3c(cc1C2=O)OCO3
inactive: dose: 7.5 mg/kg/injection, schedule: Q01DX005 (ip), vehicle: saline with Tween-80 95 % of control | dose: 15.0 mg/kg/injection, schedule: Q01DX005 (ip), vehicle: saline with Tween-80 93 % of control

Cc1nn2c(-c3cnns3)nnc2s1
inactive: dose: 50.0 mg/kg/injection, schedule: Q01DX001 (ip), vehicle: Klucel (hydroxypropylcellulose) (HPC) 107 % of control | dose: 100.0 mg/kg/injection, schedule: Q01DX001 (ip), vehicle: Klucel (hydroxypropylcellulose) (HPC) 107 % of control | dose: 200.0 mg/kg/injection, schedule: Q01DX001 (ip), vehicle: Klucel (hydroxypropylcellulose) (HPC) 100 % of control

COC(=O)C(CCCN)NC(=O)c1ccccc1 (stereo not drawn)
inactive: [11] 99 % of control | dose: 100.0 mg/kg/injection, schedule: Q01DX005 (ip), vehicle: saline 92 % of control | dose: 200.0 mg/kg/injection, schedule: Q01DX005 (ip), vehicle: saline 90 % of control

O=c1[nH]cnc2nn(C3OC(CO)C(O)C3O)cc12 (stereo not drawn)
inactive: dose: 0.39 mg/kg/injection, schedule: Q01DX009 (ip), vehicle: saline with Tween-80 104 % of control and 117 % of control | dose: 0.78 mg/kg/injection, schedule: Q01DX009 (ip), vehicle: saline with Tween-80 104 % of control and 116 % of control | dose: 1.56 mg/kg/injection, schedule: Q01DX009 (ip), vehicle: saline with Tween-80 107 % of control | dose: 3.12 mg/kg/injection, schedule: Q01DX009 (ip), vehicle: saline with Tween-80 93 % of control | dose: 6.25 mg/kg/injection, schedule: Q01DX009 (ip), vehicle: saline with Tween-80 93 % of control | dose: 12.5 mg/kg/injection, schedule: Q01DX009 (ip), vehicle: saline with Tween-80 101 % of control | [12] 96 % of control | [6] 104 % of control

CCOC(=O)c1cnc(SC)n(-c2ccc(Cl)cc2)c1=O
inactive: [13] 100 % of control | dose: 100.0 mg/kg/injection, schedule: Q01DX005 (ip), vehicle: Klucel (hydroxypropylcellulose) (HPC) 100 % of control | dose: 200.0 mg/kg/injection, schedule: Q01DX005 (ip), vehicle: Klucel (hydroxypropylcellulose) (HPC) 108 % of control

Cc1ccc(CSCc2c(CSCc3ccc(C)cc3)c(CSCc3ccc(C)cc3)c(CSCc3ccc(C)cc3)c(CSCc3ccc(C)cc3)c2CSCc2ccc(C)cc2)cc1
inactive: [6] 92 % of control | [7] 97 % of control | [8] 86 % of control

O=[N+]([O-])c1ccc(/C=C\S(=O)(=O)OCCCl)cc1
inactive: [13] 100 % of control

CN(C)CCC=C1c2ccccc2C=Cc2ccccc21
inactive: dose: 12.5 mg/kg/injection, schedule: Q01DX005 (ip), vehicle: saline 103 % of control | dose: 25.0 mg/kg/injection, schedule: Q01DX005 (ip), vehicle: saline 95 % of control | [11] 112 % of control

CCN(CC)CCOc1ccc(Cl)c(C)c1
inactive: dose: 50.0 mg/kg/injection, schedule: Q01DX005 (ip), vehicle: saline with Tween-80 101 % of control | dose: 100.0 mg/kg/injection, schedule: Q01DX005 (ip), vehicle: saline with Tween-80 103 % of control

Cc1ncc(Cl)c2cc3ccccc3cc12
inactive: [5] 101 % of control and 89 % of control | [14] 99 % of control | [15] 99 % of control and 94 % of control

CC(C)(C)N(OC(=O)c1ccc([N+](=O)[O-])cc1)c1ccccc1
inactive: [12] 98 % of control | [6] 97 % of control | [7] 95 % of control

Nc1cc(S(=O)(=O)c2ccc(O)c(N)c2)ccc1O
inactive: [14] 111 % of control and 92 % of control | [15] 102 % of control and 104 % of control | dose: 400.0 mg/kg/injection, schedule: Q01DX009 (ip), vehicle: saline 100 % of control and 95 % of control

CCC1(CC)C(=O)N(C)P(=O)(Oc2ccccc2)N(C)C1=O
inactive: dose: 100.0 mg/kg/injection, schedule: Q04DX002 (ip), vehicle: saline 100 % of control | dose: 200.0 mg/kg/injection, schedule: Q04DX002 (ip), vehicle: saline 103 % of control | dose: 400.0 mg/kg/injection, schedule: Q04DX002 (ip), vehicle: saline 101 % of control
